Literature values in patent publication US8193376B2, “Artemisinin derivatives with natural amino acids, peptides, and amino sugars for the treatment of infection and topical condition in mammals” (Bioderm Research, priority 2007, dated 2012).

What was measured:
nucleic acid synthesis = conditions: relative to artemisinin
malaria = conditions: relative to artemisinin

| SMILES | ability to inhibit nucleic acid synthesis, times the activity of artemisinin (nucleic acid synthesis) [times] | antimalarial potency, times that of artemisinin (malaria) [times] | antimalarial potency higher than that of artemisinin (malaria) [%] |
| --- | --- | --- | --- |
| CO[C@H]1O[C@@H]2O[C@@]3(C)CC[C@H]4[C@H](C)CC[C@@H]([C@H]1C)[C@@]24OO3 [Artemether] | 100 | 6 |  |
| C[C@H]1[C@H](OC(=O)CCC(=O)O)O[C@@H]2O[C@@]3(C)CC[C@H]4[C@H](C)CC[C@@H]1[C@@]24OO3 [Artesunate] | 100 | 5.2 |  |
| C[C@H]1[C@@H](O)O[C@@H]2O[C@@]3(C)CC[C@H]4[C@H](C)CC[C@@H]1[C@@]24OO3 [Dihydroartemisinin] | 100 |  | 60 |
| CCO[C@H]1O[C@@H]2O[C@@]3(C)CC[C@H]4[C@H](C)CC[C@@H]([C@H]1C)[C@@]24OO3 [arteether, Arteether] | 100 |  |  |
| CCCOC(=O)OC1O[C@@H]2O[C@@]3(C)CC[C@H]4[C@H](C)CC[C@@H]([C@H]1C)[C@@]24OO3 (some centres unmarked) [propylcarbonate dihydroartemisinin] | 100 |  |  |
